Here are results for five compounds from US20260232717A1, “PARENTERAL NUTRITION FORMULATION COMPRISING VITAMIN B12” (BAXTER INTERNATIONAL INC., priority 2020, published 2026).

Marks after values point to notes of the source that are not given here. Some results are limits rather than exact numbers.

Holding throughout (type): physicochemical
Data set [1] is described as follows: Stability of vitamins in 35% glucose solution during sterilization (Cycles 1-4) and storage. Conditions: for concentration, T1M40° C. / concentration, T3M40° C. / concentration, Cycle 3 T0 / concentration, T6M40° C. / concentration, Cycle 4 T0 / concentration, Unsterilized T0 / concentration, T6M40° C., sum of cyanocobalamin and hydroxocobalamin: 35% glucose solution; for concentration, T1M40° C.: 1 month 40° C.; for concentration, T3M40° C.: 3 months 40° C.; for concentration, Cycle 3 T0: Cycle 3 (water spray sterilization, Co = 25 minutes); for concentration, Cycle 3 T0 / concentration, Cycle 4 T0: after sterilization; for concentration, T6M40° C. / concentration, T6M40° C., sum of cyanocobalamin and hydroxocobalamin: 6 months 40° C.; for concentration, Cycle 4 T0: Cycle 4 (water spray sterilization, Co = 19 minutes); for concentration, Unsterilized T0: before sterilization. How it is done:
(§1) For testing the stability of vitamin B12 in formulation as they are typically used in parenteral nutrition, a 35% glucose solution, a 14.2% amino acid formulation such as found, for example, in Olimel N9E (Baxter Int. Inc.), and a 20% lipid emulsion such as found in Clinoleic 20% (Baxter Int. Inc.) were supplemented with different vitamins combinations which always included vitamin B12. KC1 was added into the glucose solution to understand if it has an effect on the stability of vitamin B12. Vitamin B12 was introduced as […]. Ascorbyl palmitate was added to the lipid emulsion formulation as a stabilizing agent due to its antioxidant properties. In addition, two separate micellar solutions (“Vit A” and “Vit B”, see Table 5) comprising certain vitamins to be assessed with regard to degradation (B3, B6, B8, B9, B12, C) but formulated with different excipients as micellization agents were tested for vitamin B12 stability. Vit A consisted of a solution of mixed micelles with ascorbyl palmitate as a potential stability enhancer. Vit B was formulated with a mix of polysorbates, PEG and sorbitol to form micelles. The micellar solutions were prepared by mixing, under high speed, a solution composed of glycocholic acid and lecithins dissolved in water. In case of Vit B, the glycocholic acid and lecithin were replaced by PEG and polysorbate. All formulations were provided in standard flexible containers and overpouched with an aluminum overpouch for subsequent sterilization. For an overview over formulations and conditions see Table 5.
(§2) All samples were submitted to two different sterilization technologies. Steam sterilization targeting a Fo=8 min was. used for large volumes (400/800 ml, Cycle 2) and for small volumes (25/50 ml, Cycle 1) as lined out in Table 5 above. The same samples were sterilized by water spray sterilization with a serial tower continuous sterilization equipment with two different exposure times (Cycles 3 (25 min.) and 4 (19 min.)).
(§3) The vitamin recovery was then compared between the different sterilization cycles and formulations to understand the impact of the formulation and the sterilization technology used on their respective short- and long-term stability. Therefore, after sterilization, the samples were stored at 40° C./[…] for 6 months to evaluate the recovery of vitamin B12 at TIM, T3M and T6M. Besides, backup samples were stored at 5° C. Finally, some samples were also stored at 25° C./40% RH to provide for real time stability data.

Data set [2] can be described thus: Studies of cyanocobalamin in lipid emulsions (summary statement). How it is done: (storage for 3 months at 40° C.), even though hydroxocobalamin seems to remain relatively stable for about 6 months at 40° C.
Data set [3] is described as follows: Stability of vitamin B12 in 20% lipid emulsion with ascorbyl palmitate during sterilization (Cycles 1-4) and storage. Conditions: for concentration, T1M40° C.: 1 month 40° C.; for concentration, T6M40° C., sum of cyanocobalamin and hydroxocobalamin: 6 months 40° C. How it is done: as §1, §2, §3
Vitamin B12 was also considerably degraded in the lipid emulsion (Tables 8 through 11). […] It should thus be avoided in formulations according to the invention.

The mark [4] stands for this setting: Cycle 1 (steam sterilization), 25 ml.
The mark [5] stands for this setting: Cycle 2 (steam sterilization), 800 ml.

For `O=C(O)c1cccnc1` [Batch B3, niacin], the results for the “concentration, T1M40° C.” value in data set [1] (setting [4]) and in data set [1] (setting [5]) were 49300 ng/mL and 50600 ng/mL, respectively. The “concentration, T3M40° C.” value in data set [1] (setting [4]) worked out at 50200 ng/mL; in data set [1] (setting [5]), 51200 ng/mL; in data set [1] (Cycle 3 (water spray)), 50300 ng/mL; in data set [1] (Cycle 4 (water spray)) it was 51000 ng/mL. Further, the “concentration, Cycle 3 T0” value in data set [1] amounted to 50500 ng/mL. Further, the “concentration, T6M40° C.” value came to 48270 ng/mL in data set [1] (Cycle 3 (water spray)) and 49350 ng/mL in data set [1] (Cycle 4 (water spray)). The “concentration, Cycle 4 T0” value in data set [1] (800 ml) was 50400 ng/mL. Besides, the “concentration, Unsterilized T0” value in data set [1] (Table 6A (25 ml)) turned out to be 51100 ng/mL; in data set [1] (Table 6B (800 ml)), 51100 ng/mL; in data set [1] (Table 7A), 52800 ng/mL; in data set [1] (Table 7B, 800 ml), 52800 ng/mL.

On to `Cc1ncc(CO)c(CO)c1O` [Batch B6, Pyridoxine], for which the “concentration, T1M40° C.” value stood at 6400 ng/mL in data set [1] (setting [4]) and 5930 ng/mL in data set [1] (setting [5]). Moreover, the “concentration, T3M40° C.” value in data set [1] (setting [4]) was found to be 6500 ng/mL; in data set [1] (setting [5]), 6000 ng/mL; in data set [1] (Cycle 3 (water spray)) it was 6100 ng/mL; in data set [1] (Cycle 4 (water spray)) it was 5900 ng/mL. The “concentration, Cycle 3 T0” value in data set [1] came to 6230 ng/mL. For the same compound, the “concentration, T6M40° C.” value in data set [1] (Cycle 3 (water spray)) came out at 6040 ng/mL; in data set [1] (Cycle 4 (water spray)), 6030 ng/mL. The “concentration, Cycle 4 T0” value in data set [1] (800 ml) turned out to be 6270 ng/mL. In addition, the “concentration, Unsterilized T0” value was found to be 6400 ng/mL in data set [1] (Table 6A (25 ml)); 6400 ng/mL in data set [1] (Table 6B (800 ml)); 6610 ng/mL in data set [1] (Table 7A); 6610 ng/mL in data set [1] (Table 7B, 800 ml).

Take `C/C1=C2/[N-][C@H]([C@H](CC(N)=O)[C@@]2(C)CCC(=O)NC[C@@H](C)OP(=O)([O-])O[C@H]2[C@@H](O)[C@@H](n3cnc4cc(C)c(C)cc43)O[C@@H]2CO)[C@]2(C)N=C(/C(C)=C3N=C(/C=C4N=C1[C@@H](CCC(N)=O)C\4(C)C)[C@@H](CCC(N)=O)[C@]\3(C)CC(N)=O)[C@@H](CCC(N)=O)[C@]2(C)CC(N)=O.[Co+3].[OH-]` [hydroxocobalamin]: the “time hydroxocobalamin remains relatively stable” value in data set [2] (lipid emulsions, 40° C.) is listed as “about 6 months”.

For the compound cobalamin [Batch B12], the “concentration, T1M40° C.” value in data set [1] (setting [4]) was 4.5 ng/mL; in data set [1] (setting [5]) it was 4 ng/mL; in data set [3] (20% lipid emulsion, Cycle 1 (steam sterilization)), 4 ng/mL; in data set [3] (20% lipid emulsion, Cycle 2 (steam sterilization)), “<LOD”. Also, the “concentration, T3M40° C.” value was 3.7 ng/mL in data set [1] (setting [4]); 3.6 ng/mL in data set [1] (setting [5]); 4.1 ng/mL in data set [1] (Cycle 3 (water spray)); 4.1 ng/mL in data set [1] (Cycle 4 (water spray)); “<LOD” in data set [3] (20% lipid emulsion, Cycle 1 (steam sterilization), 3 months 40° C.). Further, the “concentration, Cycle 3 T0” value in data set [1] amounted to 5.1 ng/mL; in data set [3] (20% lipid emulsion, Cycle 3 (water spray sterilization), after sterilization), 5 ng/mL. Besides, the “concentration, T6M40° C., sum of cyanocobalamin and hydroxocobalamin” value in data set [1] (Cycle 3 (water spray)) was 0.0023* mg/L; in data set [1] (Cycle 4 (water spray)) it was 0.0031* mg/L; in data set [3] (20% lipid emulsion, Cycle 3 (water spray)) it was 3.7 ng/mL; in data set [3] (20% lipid emulsion, Table 11, head 'Cycle 3', water spray) it was 5.5 ng/mL. The “concentration, Cycle 4 T0” value in data set [1] (800 ml) came out at 5.2 ng/mL. In addition, the “concentration, Unsterilized T0” value was 6.2 ng/mL in data set [1] (Table 6A (25 ml)); 6.2 ng/mL in data set [1] (Table 6B (800 ml)); 6 ng/mL in data set [1] (Table 7A); 6 ng/mL in data set [1] (Table 7B, 800 ml); 15 ng/mL in data set [3] (20% lipid emulsion with ascorbyl palmitate, Table 8, before sterilization); 14 ng/mL in data set [3] (20% lipid emulsion, Table 10, before sterilization). In addition, the “concentration, Unsterilized T0” value in data set [3] (20% lipid emulsion, Table 11, before sterilization) was 14 ng/mL. Further, the “concentration, Cycle 2 T0” value in data set [3] (20% lipid emulsion, Cycle 2 (steam sterilization), after sterilization) was determined as 5 ng/mL. In addition, the “concentration, T0 after sterilization” value in data set [3] (20% lipid emulsion, Table 11, head 'Cycle 3', water spray sterilization with serial tower continuous equipment) turned out to be 6 ng/mL.

On to cyanocobalamin, for which the “cyanocobalamin detection after 6 months” value in data set [1] (glucose solution, Cycles 1 and 2 (steam sterilization), FIG. 2) is “no cyanocobalamin can be detected”. The cyanocobalamin detection entry in data set [2] (lipid emulsions irrespective of oil source, pH or stabilizing agent, T3M40° C.) is “no more cyanocobalamin can be detected”.
